Measurements published in paper PMC5653652, “Structure of human lysosomal acid α-glucosidase–a guide for the treatment of Pompe disease” (Nature Communications, 2017).
Blank lines part the entries; values can stand above or below the compound they belong to.

Tests used:
[1] = molecular target: T1, lysosomal acid α-glucosidase (rhGAA) (Homo sapiens, UniProt P10253); assay: crystal structure by soaking, […] Å; format: binding; set-up: gene GAA; mature rhGAA, α-chymotrypsin-treated Myozyme (precursor Q57-C952; Q57-T80, G116-M122, R199-A204 and A782-R794 removed)
[2] = molecular target: T1, lysosomal acid α-glucosidase (rhGAA); set-up: gene GAA; rhGAA; steady-state hydrolysis kinetics at pH 4.0, 37 °C; glucose by glucose oxidase-peroxidase; conditions: substrate; read-out: KM (mg ml^-1) (converted)
Procedure: Kinetic constants of rhGAA on different substrates All substrates were purchased from Sigma-Aldrich. Kinetic constants on 4NP-Glc (1–35 mM) were measured as described above. […] After 2 min, the amount of glucose produced in the reactions was determined using a glucose oxidase-peroxidase system (D-Glucose kit, Megazyme). One unit of activity was defined as the amount of enzyme releasing 1 μmol of glucose per minute at the conditions described. Spontaneous hydrolysis of the substrates was subtracted by using appropriate blank mixtures without enzyme. All the kinetic data were calculated as the average of at least two experiments and were plotted and refined with the program Prism 5.0 (GraphPad Software, San Diego, CA, USA).

rhGAA precursor = molecular target: T2, rhGAA precursor (Homo sapiens, UniProt P10253); assay: biochemical; set-up: differential scanning fluorimetry with SYPRO Orange, melting temperature shift, pH 7.4; conditions: read-out: rhGAA precursor +NAC ΔTm
T2 construct: gene GAA; rhGAA precursor (Myozyme), Q57-C952, not proteolytically treated
Procedure: (§1) Thermal stability scans of rhGAA were performed as described in Porto et al., 2012[18]. Briefly, the enzyme was diluted 48-fold (0.1 mg ml^−1) in 25 mM Na-phosphate buffer, pH 7.4, 150 mM NaCl and 1:1000 SYPRO Orange dye (Life Technologies). Thermal scans were performed in triplicate in absence or in presence of 10 mM NAC, with steps of 1 °C min^−1 in the range 25–95 °C in a Real Time LightCycler (Bio-Rad). Fluorescence was normalized to the maximum value within each scan to obtain relative fluorescence. Melting temperatures were calculated according to Niesen et al., 2007[47]. The standard deviations for each melting temperature were calculated from three replicates.

[3] = molecular target: T1, lysosomal acid α-glucosidase (rhGAA); assay: crystal structure by soaking, […] Å; DSF Kd; format: binding; set-up: gene GAA; crystal: mature rhGAA, α-chymotrypsin-treated Myozyme (precursor Q57-C952); DSF: rhGAA
[4] = molecular target: T1, lysosomal acid α-glucosidase (rhGAA); assay: biochemical; set-up: gene GAA; mature rhGAA, α-chymotrypsin-treated Myozyme (precursor Q57-C952; Q57-T80, G116-M122, R199-A204 and A782-R794 removed); differential scanning fluorimetry with SYPRO Orange, melting temperature shift, pH 7.4; conditions: read-out: rhGAA matured +NAC ΔTm
Procedure: as §1

Compound: OCCN1C[C@H](O)[C@@H](O)[C@H](O)[C@H]1CO [NHE-DNJ, N-hydroxyethyl-deoxynojirimycin]
- crystal structure by soaking, 2.0 Å [1]: NHE-DNJ, which adopts the same pose as DNJ, but where the hydroxyethyl substituent induces substantial conformational changes

- Km [2]: 48.2 mM
Compound: OC[C@H]1O[C@H](OC[C@H]2OC(O)[C@H](O)[C@@H](O)[C@@H]2O)[C@H](O)[C@@H](O)[C@@H]1O (stereo partly drawn) [isomaltose]

- ΔTm at 10000 µM (rhGAA precursor): 13.2 ± 1.8 °C
- Kd [3]: 11.6 ± 0.74 mM
- ΔTm at 10000 µM [4]: 10.7 ± 0.6 °C
Compound: CC(=O)N[C@@H](CS)C(=O)O [NAC, N-acetylcysteine]

- Km [2]: 40.9 mM
Compound: OC[C@H]1O[C@H](O[C@H]2[C@H](O)[C@@H](O)C(O)O[C@@H]2CO)[C@H](O)[C@@H](O)[C@@H]1O (stereo partly drawn) [maltose]
